Experimental data: ChEMBL document CHEMBL1151366, “Potential Anticancer Agents. XVIII. Constituents of Amyris pinnata” (1981)
Converted amounts (≈) assume the structure as drawn. The source made the active and inactive calls. No cut-off for these calls is given here.

What was measured:
[1] = Cytotoxicity against human 9KB cells; type: functional; conditions: read-out: ED50 (the source's name)
P388 = assay: In vivo antitumor activity against mouse P388 cells at 7.5 mg/kg relative to control; type: functional
B16 = assay: In vivo antitumor activity against mouse B16 cells at 1.5 to 12.0 mg/kg relative to control; type: functional, organism-based

Compound	EC50 [1]	T/C (P388)	Activity (B16)
CC(C)=CCOc1c2occc2cc2ccc(=O)oc12 [PENTOSALEN]	33 µg/mL (≈ 122 µM)	–	–
COc1cc2ccc(=O)oc2cc1O [SCOPOLETIN]	2.9 µg/mL (≈ 15.1 µM)	–	–
O=C1OC[C@H](Cc2ccc3c(c2)OCO3)/C1=C\c1ccc2c(c1)OCO2 [SAVININ]	22 µg/mL (≈ 62.4 µM)	–	–
CC(C)(O)[C@H](O)COc1c2occc2cc2ccc(=O)oc12 [HERACLENOL]	> 100 µg/mL	–	–
COc1c2ccoc2c(OCC=C(C)C)c2oc(=O)ccc12 [PHELLOPTERIN]	7.2 µg/mL (≈ 24 µM)	–	–
O=C1OCC(C(O)c2ccc3c(c2)OCO3)C1Cc1ccc2c(c1)OCO2 (stereo unspecified) [SVENTENIN]	23 µg/mL (≈ 62.1 µM)	–	–
CC[C@H](CC[C@@H](C)[C@H]1CC[C@H]2[C@@H]3CC=C4C[C@@H](O)CC[C@]4(C)[C@H]3CC[C@]12C)C(C)C [BETA-SITOSTEROL]	22 µg/mL (≈ 53 µM)	–	–
COc1cc([C@@H]2c3cc4c(cc3C[C@H]3COC(=O)[C@@H]32)OCO4)cc2c1OCO2 [AUSTROBAILIGNAN 1]	0.027 µg/mL (≈ 0.0706 µM)	125%	inactive
CC1(C)C=Cc2c(ccc3ccc(=O)oc23)O1 [SESALIN]	31 µg/mL (≈ 136 µM)	–	–
